Data from EP1977645A1, “Insecticidal derivates of substituted phenylalkylamines” (priority 2007, dated 2008).

Assay: log P determination (acidic)
Format: physicochemical

CNC(=S)N1CCO/C1=N\[C@@H](C)c1ccccc1F [compound 3, (2Z)-2-{[(1S)-1-(2-fluorophenyl)ethyl]imino}-N-methyl-1,3-oxazolidine-3-carbothioamide]
logP: 3.18
